From patent publication US12053473B2, “Benzylamino substituted quinazolines and derivatives as SOS1 inhibitors” (priority 2016, dated 2024)

Target: SOS1 and KRAS G12D (protein-protein interaction) (Homo sapiens, UniProt Q07889)
Test: KRAS::SOS1 AlphaScreen binding assay
Conditions: assay buffer without EDTA (values not marked with an asterisk); read-out: IC50 (SOS1)
Experimental: KRAS::SOS1 AlphaScreen Binding Assay
Low IC50 values are indicative of high potency of the SOS1 inhibitor compound in this assay setting:
10 nM (final assay concentration) KRAS G12D, 10 μM (final assay concentration) GDP and 5 nM (final assay concentration) GST-SOS1 are mixed in assay buffer prior to use and kept at room temperature.
AlphaLSA Glutathione Acceptor Beads and AlphaScreen Streptavidin Donor Beads are mixed in assay buffer at a concentration of 10 μg/mL (final assay concentration) each prior to use and kept at room temperature.
Compounds are diluted to a final start concentration of 100 μM and are tested in duplicate. […] For compound a start concentration of 100 μM, 150 nL of compound solution is transferred per well in 11 concentrations in duplicate with serial 1:5 dilutions.
The assay is run using a fully automated robotic system in a darkened room below 100 Lux. 10 μL of KRAS::SOS1 GDP mix is added into columns 1-24 to the 150 nL of compound solution (final dilution in the assay 1:100, final DMSO concentration 1%).
After a 30 minute incubation time 5 μL of bead mix is added into columns 1-23. Plates are kept at room temperature in a darkened incubator. After a further 60 minute incubation, the signal is measured using a PerkinElmer Envision HTS Multilabel Reader using the AlphaScreen specifications from PerkinElmer. Each plate contains the following controls: • diluted DMSO+KRAS::SOS1 GDP mix+bead mix • diluted DMSO+KRAS::SOS1 GDP mix Result Calculation:
IC50 values are calculated and analyzed using a 4 parametric logistic model.

| Compound | IC50 |
| --- | --- |
| Cc1cccc([C@@H](C)Nc2nc(C)nc3cc(C)c(C4CCN(C(C)C)CC4)cc23)c1 [I-288] | 22 nM |
| Cc1cccc([C@@H](C)Nc2nc(C)nc3c(C)cc(C4CCN(C(C)C)CC4)cc23)c1 [I-289] | 18 nM |
| Cc1cccc([C@@H](C)Nc2nc(C)nc3c(C)cc(C4CCN(C5CCOC5)CC4)cc23)c1 (some centres unmarked) [I-290] | 28 nM |
| Cc1cccc([C@@H](C)Nc2nc(C)nc3cc(C)c(C4CCN(CC(=O)O)CC4)cc23)c1 [I-291] | 10 nM |
| Cc1cccc([C@@H](C)Nc2nc(C)nc3c(C)cc(C4CCN(CC(=O)O)CC4)cc23)c1 [I-292] | 28 nM |
| Cc1nc(N[C@H](C)c2cccc(C(F)(F)F)c2)c2cc(C3CCN(CC(=O)O)CC3)ccc2n1 [I-293] | 11 nM |

Same assay, conditions: read-out: IC50 (SOS1)

| Compound | IC50 |
| --- | --- |
| Cc1cccc([C@@H](C)Nc2nc(C)nc3ccc([C@H]4CC[C@H](C(=O)N5CC(C#N)C5)CC4)cc23)c1 [I-265] | 36 nM |
| Cc1cccc([C@@H](C)Nc2nc(C)nc3ccc([C@H]4CC[C@H](C(=O)N5CCC(O)C5)CC4)cc23)c1 (some centres unmarked) [I-266] | 25 nM |
| COc1cc2nc(C)nc(N[C@H](C)c3cccc(C)c3)c2cc1[C@H]1CC[C@H](C(=O)N(C)C)CC1 [I-267] | 9 nM |
| CC(=O)N1CCC(c2cc(C)c3nc(C)nc(N[C@H](C)c4cccc(C)c4)c3c2)CC1 [I-269] | 24 nM |
| COCC(=O)N1CCC(c2cc(C)c3nc(C)nc(N[C@H](C)c4cccc(C)c4)c3c2)CC1 [I-270] | 21 nM |
| CC(=O)N1CCC(c2cc3c(N[C@H](C)c4cccc(C)c4)nc(C)nc3cc2C)CC1 [I-271] | 24 nM |
| COCC(=O)N1CCC(c2cc3c(N[C@H](C)c4cccc(C)c4)nc(C)nc3cc2C)CC1 [I-272] | 34 nM |
| Cc1nc(N[C@H](C)c2cccc(C(F)(F)F)c2)c2cc(C3CCN(CC(=O)N(C)C)CC3)ccc2n1 [I-273] | 11 nM |
| COc1cc2nc(C)nc(N[C@H](C)c3cc(N)cc(C(F)(F)F)c3F)c2cc1C1CCN(C(C)=O)CC1 [I-278] | 2 nM |
| CC(=O)N1CCC(c2ccc3nc(C)nc(N[C@H](C)c4cccc(C(F)(F)F)c4)c3c2)CC1 [I-280] | 17 nM |
| COc1cc2nc(C)nc(N[C@H](C)c3cccc(C)c3)c2cc1C1CCN(C(C)=O)CC1 [I-281] | 12 nM |
| COCC(=O)N1CCC(c2cc3c(N[C@H](C)c4cccc(C)c4)nc(C)nc3cc2OC)CC1 [I-282] | 20 nM |
| COc1cc2nc(C)nc(N[C@H](C)c3cccc(C(F)(F)CO)c3)c2cc1C1=CCC(C(=O)N(C)C)CC1 (some centres unmarked) [I-285] | 2 nM |
| COCC(=O)N1CC=C(c2cc3c(N[C@H](C)c4cccc(C(F)(F)CO)c4)nc(C)nc3cc2OC)CC1 [I-286] | 2 nM |
| COc1cc2nc(C)nc(N[C@H](C)c3cccc(C(F)(F)CO)c3)c2cc1C1=CCN(C(C)=O)CC1 [I-287] | 2 nM |
| COc1cc2nc(C)nc(N[C@H](C)c3cccc(C(F)(F)F)c3C)c2cc1[C@H]1CC[C@H](C(=O)N(C)CCO)CC1 [I-294] | 5 nM |
| COc1cc2nc(C)nc(N[C@H](C)c3cccc(C(F)(F)F)c3C)c2cc1[C@H]1CC[C@H](C(=O)N(C)C)CC1 [I-296] | 7 nM |
| Cc1nc(N[C@H](C)c2cc(N)cc(C(F)(F)F)c2)c2cc([C@H]3CC[C@H](C(=O)N(C)C)CC3)ccc2n1 [I-298] | 3 nM |
| Cc1nc(N[C@H](C)c2cc(N)cc(C(F)(F)F)c2)c2cc([C@H]3CC[C@@H](C(=O)N(C)C)CC3)ccc2n1 [I-299] | 10 nM |
| COCC(=O)N1CCC(c2cc3c(N[C@H](C)c4cc(N)cc(C(F)(F)F)c4F)nc(C)nc3cc2OC)CC1 [I-307] | 3 nM |
| COc1cc2nc(C)nc(N[C@H](C)c3cccc(C(F)(F)F)c3)c2cc1C1CCN(C(C)=O)CC1 [I-308] | 9 nM |
| Cc1nc(N[C@H](C)c2cc(N)cc(C(F)(F)F)c2F)c2cc(C3CCS(=O)(=O)CC3)ccc2n1 [I-310] | 7 nM |
| COc1cc2nc(C)nc(N[C@H](C)c3cc(N)cc(C(F)(F)F)c3F)c2cc1C1CCS(=O)(=O)CC1 [I-311] | 6 nM |

| Compound | IC50 |
| --- | --- |
| COc1cc2nc(C)nc(N[C@H](C)c3cccc(C)c3)c2cc1C1CCS(=O)(=O)CC1 [I-312] | 18 nM |
| Cc1nc(N[C@H](C)c2cc(N)cc(C(F)(F)F)c2)c2cc(C3CCN(C(=O)CN(C)C)CC3)ccc2n1 [I-313] | 3 nM |
| COCC(=O)N1CCC(c2ccc3nc(C)nc(N[C@H](C)c4cc(N)cc(C(F)(F)F)c4)c3c2)CC1 [I-314] | 2 nM |
| COCC(=O)N1CCC(c2cc3c(N[C@H](C)c4cc(N)cc(C(F)(F)F)c4)nc(C)nc3cc2C)CC1 [I-315] | 3 nM |
| Cc1nc(N[C@H](C)c2cc(N)cc(C(F)(F)F)c2)c2cc(C3CCS(=O)(=O)CC3)cc(C)c2n1 [I-316] | 6 nM |
| Cc1nc(N[C@H](C)c2cc(N)cc(C(F)(F)F)c2C)c2cc(C3CCS(=O)(=O)CC3)ccc2n1 [I-317] | 4 nM |
| Cc1nc(N[C@H](C)c2cc(N)cc(C(F)(F)F)c2)c2cc(C3CCS(=O)(=O)CC3)c(F)cc2n1 [I-320] | 4 nM |
| Cc1nc(N[C@H](C)c2cc(N)cc(C(F)(F)F)c2)c2cc(C3CCS(=O)(=O)CC3)c(C)cc2n1 [I-321] | 3 nM |
| Cc1nc(N[C@H](C)c2cc(N)cc(C(F)(F)F)c2)c2cc(C3CCS(=O)(=O)CC3)ccc2n1 [I-322] | 3 nM |
| CCn1cc(-c2cc3c(N[C@H](C)c4cc(N)cc(C(F)(F)F)c4)nc(C)nc3cc2C)ccc1=O [I-347] | 6 nM |
| Cc1nc(N[C@H](C)c2cc(N)cc(C(F)(F)F)c2)c2cc(-c3ccn(C)c(=O)c3)c(C)cc2n1 [I-348] | 7 nM |
| CCn1ccc(-c2cc3c(N[C@H](C)c4cc(N)cc(C(F)(F)F)c4)nc(C)nc3cc2C)cc1=O [I-349] | 5 nM |
| CCn1cc(-c2cc3c(N[C@H](C)c4cc(N)cc(C(F)(F)F)c4)nc(C)nc3cc2OC)ccc1=O [I-350] | 9 nM |
| COc1cc2nc(C)nc(N[C@H](C)c3cc(N)cc(C(F)(F)F)c3)c2cc1-c1ccc(=O)n(C(C)C)c1 [I-351] | 13 nM |
| Cc1nc(N[C@H](C)c2cc(N)cc(C(F)(F)F)c2)c2cc([C@H]3CC[C@H](C(=O)N(C)C)CC3)c(C)cc2n1 [I-352] | 2 nM |
| COc1cc2nc(C)nc(N[C@H](C)c3cc(N)cc(C(F)(F)F)c3)c2cc1[C@H]1CC[C@H](C(=O)N2CCN(C)CC2)CC1 [I-353] | 2 nM |
| COc1cc2nc(C)nc(N[C@H](C)c3cc(N)cc(C(F)(F)F)c3)c2cc1[C@H]1CC[C@@H](C(=O)N2CCN(C)CC2)CC1 [I-354] | 22 nM |
| COc1cc2nc(C)nc(N[C@H](C)c3cc(N)cc(C(F)(F)F)c3)c2cc1[C@H]1CC[C@H](C(=O)N(C)C)CC1 [I-355] | 2 nM |
| COc1cc2nc(C)nc(N[C@H](C)c3cc(N)cc(C(F)(F)F)c3)c2cc1[C@H]1CC[C@@H](C(=O)N(C)C)CC1 [I-356] | 34 nM |
| COCCN(C)C(=O)[C@H]1CC[C@H](c2cc3c(N[C@H](C)c4cc(N)cc(C(F)(F)F)c4)nc(C)nc3cc2OC)CC1 [I-357] | 3 nM |
| COCCN(C)C(=O)[C@H]1CC[C@@H](c2cc3c(N[C@H](C)c4cc(N)cc(C(F)(F)F)c4)nc(C)nc3cc2OC)CC1 [I-358] | 49 nM |
| COc1cc2nc(C)nc(N[C@H](C)c3cc(N)cc(C(F)(F)F)c3)c2cc1[C@H]1CC[C@H](C(=O)N2CCOCC2)CC1 [I-359] | 2 nM |

Same assay, conditions: values marked with * in the table; read-out: IC50 (SOS1)

| Compound | IC50 |
| --- | --- |
| COCC(=O)N1CCC(c2ccc3nc(C)nc(N[C@H](C)c4cccc(C)c4)c3c2)CC1 [I-277] | 22 nM |
| Cc1cccc([C@@H](C)Nc2nc(C)nc3ccc(C4CCS(=N)(=O)CC4)cc23)c1 (some centres unmarked) [I-330] | 20 nM |
| Cc1cccc([C@@H](C)Nc2nc(C)nc3ccc([C@H]4CC[S@@](=N)(=O)CC4)cc23)c1 [I-331] | 25 nM |
| Cc1cccc([C@@H](C)Nc2nc(C)nc3ccc([C@H]4CC[S@](=N)(=O)CC4)cc23)c1 [I-332] | 18 nM |
| Cc1nc(N[C@H](C)c2cccc(C(F)(F)F)c2)c2cc(-c3ccc(=O)n(CC(=O)N(C)C)c3)ccc2n1 [I-333] | 26 nM |
| COc1cc2nc(C)nc(N[C@H](C)c3cccc(C)c3)c2cc1-c1ccc(=O)n(CC(=O)N(C)C)c1 [I-335] | 27 nM |
| Cc1cccc([C@@H](C)Nc2nc(C)nc3ccc(-c4ccc(=O)n(CC(=O)N(C)C)c4)cc23)c1 [I-336] | 26 nM |
| Cc1nc(N[C@H](C)c2cccc(C(F)(F)F)c2)c2cc(-c3ccn(CC(=O)N(C)C)c(=O)c3)ccc2n1 [I-337] | 37 nM |
| COc1cc2nc(C)nc(N[C@H](C)c3cccc(C)c3)c2cc1-c1ccn(CC(=O)N(C)C)c(=O)c1 [I-338] | 39 nM |
| Cc1cccc([C@@H](C)Nc2nc(C)nc3ccc(-c4ccn(CC(=O)N(C)C)c(=O)c4)cc23)c1 [I-340] | 1 nM |
| Cc1nc(N[C@H](C)c2cccc(C(F)(F)F)c2)c2cc(-c3ccc(=O)n(CC(=O)O)c3)ccc2n1 [I-341] | 35 nM |
| Cc1cccc([C@@H](C)Nc2nc(C)nc3ccc(-c4ccn(CC(=O)O)c(=O)c4)cc23)c1 [I-342] | 48 nM |
| Cc1nc(N[C@H](C)c2cccc(C(F)(F)F)c2)c2cc(-c3ccc(=O)n(CC(N)=O)c3)ccc2n1 [I-343] | 40 nM |
| CNC(=O)Cn1cc(-c2ccc3nc(C)nc(N[C@H](C)c4cccc(C(F)(F)F)c4)c3c2)ccc1=O [I-344] | 37 nM |
